According to PMC6021390, “A promiscuous cytochrome P450 aromatic O-demethylase for lignin bioconversion” (Nature Communications, 2018):
Entries after “also recorded” stand apart in the source; their conditions may differ. Where two headings read alike, the source gives them in different places.

How the values were obtained:
GcoA = molecular target: T1, GcoA (Amycolatopsis sp., UniProt P0DPQ7); assay: Determination of substrate dissociation constants with GcoA (UV/vis spectral shift titration; fluorescence quenching for vanillin); assay type: binding
T1 construct: GST (N, cleaved yes); made in house; host or cells: E. coli Rosetta 2 (DE3)
T1 sequence (P0DPQ7 1-407): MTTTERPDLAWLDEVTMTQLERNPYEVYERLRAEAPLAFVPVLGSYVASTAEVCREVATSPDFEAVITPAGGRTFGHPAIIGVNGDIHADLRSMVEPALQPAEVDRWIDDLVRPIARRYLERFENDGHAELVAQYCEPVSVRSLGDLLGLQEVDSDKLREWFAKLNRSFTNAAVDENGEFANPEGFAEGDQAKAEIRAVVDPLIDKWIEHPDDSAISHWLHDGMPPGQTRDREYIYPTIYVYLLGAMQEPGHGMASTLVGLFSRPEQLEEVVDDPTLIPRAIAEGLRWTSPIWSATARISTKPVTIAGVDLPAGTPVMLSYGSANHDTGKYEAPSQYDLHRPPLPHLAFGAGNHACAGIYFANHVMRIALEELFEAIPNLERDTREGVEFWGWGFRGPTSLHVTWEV
Procedure: A total of 0–60 µM of substrate analogs, in 0.25 or 0.5 µM aliquots, were titrated into a cuvette containing 1–6 µM GcoA in 25 mM HEPES, 50 mM NaCl, pH 7.5. The spectrum after each substrate addition was recorded, beginning with no substrate bound. The solution reached equilibrium before the next addition. A difference spectrum was made to illustrate the shift from a low-spin aquo-heme complex to the high-spin substrate-bound complex (spectral shift from 417 nm to 388 nm). […] The absorbance at 388 nm was plotted as a function of [substrate], yielding a quadratic curve that was fit to Eq. (7) to determine the KD.7 ΔAbsobs=ΔAbsmax/2EtL0+Et+KD-L0+Et+KD^2-4Et*L0. Where L0, Et, KD, and ΔAbsmax are the ligand concentrations, total protein (subunit) concentration, the equilibrium dissociation constant, and the maximum Abs388–417 nm, respectively. Reported values are the average of 2 or more measurements.
Since the UV/vis spectra of vanillin and heme overlap, fluorescence quenching was monitored to determine the KD. […] Fluorescence emission intensity was followed upon titration of vanillin (0–350 µM) after equilibrium had been established. The % fluorescence quenched, Eq. (8), was plotted as a function of vanillin and fit to Eq. (7) above, replacing ΔAbsmax with ΔFluorescencemax.8 %Fquenched=Fmax-Fintensity/Fmax×100%.

GcoAB [1] = molecular target: T2, GcoAB (Amycolatopsis sp., UniProt P0DPQ7); details: for substrate classification with GcoAB: coupling of NADH consumption to demethylation
T2 sequence (P0DPQ7 1-407): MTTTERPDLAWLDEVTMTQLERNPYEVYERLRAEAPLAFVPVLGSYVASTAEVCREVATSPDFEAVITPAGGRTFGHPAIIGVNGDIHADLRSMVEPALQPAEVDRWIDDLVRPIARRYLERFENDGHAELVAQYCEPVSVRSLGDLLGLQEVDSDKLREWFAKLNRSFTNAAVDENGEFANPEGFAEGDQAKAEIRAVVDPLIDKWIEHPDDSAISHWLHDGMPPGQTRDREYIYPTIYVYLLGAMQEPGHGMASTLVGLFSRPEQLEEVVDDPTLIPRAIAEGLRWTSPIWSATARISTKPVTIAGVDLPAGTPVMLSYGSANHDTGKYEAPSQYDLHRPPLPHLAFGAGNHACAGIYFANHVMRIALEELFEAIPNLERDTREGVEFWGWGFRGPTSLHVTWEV
T2 sequence (P0DPQ8 1-334 partner): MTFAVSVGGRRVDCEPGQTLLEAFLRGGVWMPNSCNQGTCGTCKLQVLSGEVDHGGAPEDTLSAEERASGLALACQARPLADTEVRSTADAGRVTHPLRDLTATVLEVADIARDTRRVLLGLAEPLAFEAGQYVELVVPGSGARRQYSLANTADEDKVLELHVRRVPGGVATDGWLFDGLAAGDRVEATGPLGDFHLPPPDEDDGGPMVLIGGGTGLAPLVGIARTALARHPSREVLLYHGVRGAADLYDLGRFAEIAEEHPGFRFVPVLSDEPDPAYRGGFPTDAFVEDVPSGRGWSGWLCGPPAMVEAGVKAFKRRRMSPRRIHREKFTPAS
Procedure: The demethylation of guaiacol and substrate analogs was continuously monitored under steady-state conditions. […] A total of 100 µg/mL catalase was added to each reaction to capture any H2O2 formed during the uncoupled reaction. […] A total of 20–300 µM guaiacol (preferred substrate) or an alternate substrate from a 2.5 mM stock dissolved in DMSO was added and the reaction was monitored via measurement of UV/vis spectra for several minutes. […] A plot of vi vs [guaiacol] was fit to Eq. (2) to obtain kcat, KM, and kcat/KM. For specific activity determination, the above method was used but with saturating (300 µM) guaiacol. […] Reported values are the average of ≥3 measurements and reported errors are standard deviations.
Reactions with vanillin were performed in the same manner described above.

GcoAB [2] = molecular target: T2, GcoAB; assay: Aldehyde product determination (tryptophan assay for formaldehyde, dehydrogenase assay for acetaldehyde) versus NADH consumed; assay type: biochemical, Amycolatopsis sp. ATCC 39116; parameters: GST (N, cleaved yes); made in house; host or cells: E. coli Rosetta 2 (DE3); details: formaldehyde (acetaldehyde for guaethol), saturating substrate, 300 μM NADH, 0.2 μM GcoAB
Excerpt: For the quantification of formaldehyde (demethylation) or acetaldehyde (de-ethylation) production, the reaction was monitored via UV/vis or fluorescence (in the case of vanillin) using the same set of conditions as outlined above for specific activity determination. After eight minutes, aliquots of the sample were removed and carried onto the respective aldehyde detection assay. For reactions that produced formaldehyde (e.g., all substrates except guaethol), a colorimetric tryptophan assay was used, described previously. Briefly, 200 µL of the reaction was quenched by adding 200 µL of 0.1% tryptophan solution in 50% ethanol, 200 µL 90% sulfuric acid and 40 µL of 1% FeCl3. The solution was then incubated in a heating block for 90 min at 70 °C. After cooling, the absorbance was read at 575 nm and the [formaldehyde] calculated by comparing to a standard curve made with 0–320 µM formaldehyde. A reaction with just the assay components was treated in the same manner as the reaction samples and used as a baseline. Control reactions included everything but GcoA/B, catalase, and substrate. Reported values are the average of ≥3 measurements.
[Acetaldehyde] produced during the dealkylation of guaethol was also determined by using a colorimetric assay and a generated acetaldehyde standard curve. A kit from BioAssays was used. Briefly, 20 µL of the reacted sample was transferred to a 96-well plate and 80 µL of the working reagent, consisting of NAD/MTT and aldehyde dehydrogenase, was added. The reaction was incubated for 30 min at room temperature and the absorbance read at 565 nm. Aldehyde dehydrogenase and NAD react with acetaldehyde to produce acetic acid and NADH. […] Control reactions included samples without substrate and/or aldehyde dehydrogenase. Reported values are the average of ≥3 measurements.

GcoAB [3] = molecular target: T2, GcoAB; assay: HPLC quantification of demethylated aromatic product versus NADH consumed; assay type: biochemical, Amycolatopsis sp. ATCC 39116; parameters: GST (N, cleaved yes); made in house; host or cells: E. coli Rosetta 2 (DE3); details: saturating substrate, 300 μM NADH, 0.2 μM GcoAB
Procedure: Analyte analysis of samples was performed on an Agilent 1200 LC system (Agilent Technologies, Santa Clara, CA) equipped with a G1315A diode array detector (DAD). Each sample and standard was injected at a volume of 10 μL onto a Phenomenex Luna C18(2) column 5 μm, 4.6 × 150 mm column (Phenomenex, Torrance, CA). The column temperature was maintained at 30 °C and the buffers used to separate the analytes of interest was 0.05% acetic acid in water (A)/ acetonitrile (B). The separation was carried out using a gradient program of: (A) = 99% and (B) = 1% at time t = 0; (A) = 99% and (B) = 1% at time t = 5, (A) = 50% and (B) = 50% at t = 35 min; (A) = 1% and (B) = 99% at t = 35.01 min; (A) = 99% and (B) = 1% at t = 37.01 min; (A) = 99% and (B) = 1% at t = 47.00 min. The flow rate was held constant at 0.6 mL min^−1 resulting in a run time of 47 min. Calibration curve concentration for each analyte varied between the ranges of 2.5–200 µg L^−1. A DAD wavelength of 225 nm was used for analysis of the analytes of interest. […] A minimum of 3–5 calibration levels was used with an r^2 coefficient of 0.995 or better for each analyte and a check calibration standard (CCS) was analyzed every 10 samples to insure the integrity of the initial calibration.

[4] = 1–6 μM GcoA, 25 °C, 25 mM HEPES, 50 mM NaCl, pH 7.5, read-out: Compound KD

Structure (SMILES) | Kd (GcoA; [4]) [µM] | reduction in kcat compared to guaiacol (GcoAB [1]) | Aldehyde produced per NADH consumed (GcoAB [2]) | Demethylated product: amount produced per NADH consumed (GcoAB [3]) | binding or catalytic interaction with GcoA (GcoAB [1]; screen of ten O-methylated aromatic compounds) | substrate classification with GcoAB (GcoAB [1]) | Kd (GcoA) [µM] | Aldehyde produced per NADH consumed (GcoAB [2]; listed as vanillin)
CCOc1ccccc1O [Guaethol] | 0.07 ± 0.03 | almost fivefold reduction | 1.5 ± 0.14 | 1.4 ± 0.3 | – | – | – | –
COc1cc(/C=C/C(=O)O)ccc1O [ferulate] | – | – | – | – | no detectable binding or catalytic interaction; also recorded: preclude binding and/or demethylation | – | – | –
COc1cccc(OC)c1O [Syringol] | 2.8 ± 0.4 | – | – | 0.21 ± 0.002 | – | partial substrate, partial uncoupler | – | –
COc1ccccc1C [2-methylanisole] | 1 ± 0.1 | – | 0.90 ± 0.1 | 0.20 ± 0.04 | – | – | – | –
COc1cccc(O)c1O [3-methoxycatechol] | 3.7 ± 0.1 | – | 0.90 ± 0.04 | 0.97 ± 0.002 | – | – | – | –
COc1cc(C=O)ccc1O [Vanillin] | – | – | 0.40 ± 0.04 | 0.20 ± 0.01 | – | partial substrate, partial uncoupler | 37 ± 3 | less than stoichiometric amounts of formaldehyde
